Test results published in patent US5959109A, “Compounds and methods for increasing endogenous levels of corticotropin-releasing factor” (Neurocrine Biosciences, Inc., priority 1996, dated 1999).
Where two headings read alike, the source gives them in different places.

Legend:
human CRF-BP = settings: cited from earlier work
[1] = human, in vivo; cited from earlier work
[2] = tested on: CRF receptors (rat anterior pituitary cells); test: ACTH secretion from rat anterior pituitary cells (CRF agonist/antagonist activity); format: cell-based; settings: for CRF agonist activity relative to standard oCRF: oCRF arbitrarily 1.0
Protocol: Candidate ligand inhibitors may be screened for their ability to displace CRF from the CRF/CRF-BP complex by biological assay or by in vitro assay. One suitable biological assay is the measurement of ACTH release from cultured pituitary cells. This assay is performed in the following manner. Anterior pituitary glands from rats are washed six times with sterile HEPES buffer and transferred to a solution containing collagenase. After subsequent transfer to a 25 ml Bellco dispersion flask, the pituitaries are stirred for 30 minutes at 37° C., triturated, incubated for a further 30 minutes, and again triturated. The partially dispersed cells are then collected by centrifugation. The cell pellet is resuspended in 10 ml of neuraminidase and again collected by centrifugation. The pellet is reconstituted in 25 ml of BBM-P (BBM (Irvine Scientific) plus 100 μg/L, cortisol, 1 μg/L insulin, 0.1 μg/L EGF2, 0.4 μg/L T3, 0.7 μg/L PTH, 10 μg/L glucagon, and 2% fetal bovine serum), centrifuged again, and the resultant pellet is finally reconstituted in BBM-P. The cells are then plated at a density of 50,000-100,000/well in a 48 well plate and incubated for 2 days. On the day of assay the cells are washed once with BBM-T in preparation for stimulation with the peptide candidates or CRF. Cells are stimulated with a maximally stimulating dose of h/rCRF (1 nM) and ACTH release is measured by RIA or immunoradiometric assay. When a blocking concentration of CRF-BP is added, the amount of ACTH that is released is reduced and expressed as a fraction of the maximal release. The ligand inhibitor is added at various doses. The potency of the peptide in displacing CRF from CRF-BP is measured by the amount of ACTH release expressed as a fraction of the maximal release caused by CRF given alone.
An additional assay using rat anterior pituitary cells to measure ACTH secretion can be carried out to determine whether a ligand inhibitor functions as a CRF agonist of hCRF receptors. […] Antagonistic action may be determined by performing the assay in the presence of a challenge dose of CRF. […]

human recombinant CRF-BP = molecular target: T1, human recombinant CRF-BP (Homo sapiens, UniProt P24387); test: LIRMA: displacement of 125I-h/rCRF from CRF-BP, Ki; format: binding
T1 construct: made in house
T1 sequence (P24387 25-322): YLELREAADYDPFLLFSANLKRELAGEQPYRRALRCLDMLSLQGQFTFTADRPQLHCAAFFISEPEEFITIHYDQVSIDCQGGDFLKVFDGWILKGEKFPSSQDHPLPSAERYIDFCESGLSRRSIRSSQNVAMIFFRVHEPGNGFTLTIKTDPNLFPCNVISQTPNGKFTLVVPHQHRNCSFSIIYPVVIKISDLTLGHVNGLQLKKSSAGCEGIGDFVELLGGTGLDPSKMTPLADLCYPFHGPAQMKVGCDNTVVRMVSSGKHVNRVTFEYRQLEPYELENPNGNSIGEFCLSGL
Protocol: In LIRMA CRF-BP isolated from brain tissue, serum, or cells expressing a recombinant form, is added to wells of a 96-well plate, to small polypropylene microfuge tubes, or to glass borosilicate tubes in a binding buffer (0.02% NP-40 in 50 mM phosphate-buffered saline). ^125 I-h/rCRF (New England Nuclear) and the candidate ligand inhibitor at 10 μM are added and the reaction is incubated for 1 hour at room temperature. An appropriately diluted anti-CRF-BP antibody, such as a rabbit anti-hCRF-BP (Potter et al., Proc. Natl. Acad. Sci. USA 89:4192-4196, 1992) is added to each tube, and after further incubation, bound complexes are precipitated by the further addition of a goat anti-rabbit antibody. The precipitate containing ^125 I-CRF is collected by centrifugation and the amount of radioactivity in the pellet is determined by a gamma counter. If the candidate ligand inhibitor displaces CRF from CRF-BP, the pellets will contain less radioactivity in comparison to controls in which no candidate peptide is added. Maximum inhibition (i.e., 100%) of the binding of ^125 I-h/rCRF to the CRF-BP is defined by the amount of radioactivity left in the pellets after incubation with 10 μM of the CRF-BP peptide ligand h/rCRF (6-33). Thus, the binding potency of the candidate ligand inhibitor will be measured relative to the potency of the standard h/rCRF (6-33).
Thus, a ligand having a Ki of less than that of hCRF will bind more strongly to hCRF-BP than will hCRF itself, and a ligand having a higher value will have a relatively lower binding affinity.
The assay is performed in 600 μl polypropylene microfuge tubes or a 96-well plate. First, 50 μl of a 250 ng/ml of purified recombinant CRF-BP is added to 150 μl of PBS binding buffer (50 mM sodium phosphate, 0.15M NaCl, and 0.02% NP-40). Next, ^125 I-h/r CRF at a final concentration of 200 pM and 50 μl of a 10-100 μM concentration of the ligand inhibitor are added and incubated for 1 hour at room temperature. To the reaction, 50 μl of anti-CRF-BP antibody, 5144, diluted 1:1000 with assay buffer is added to each tube and allowed to bind for a further 1 hour at room temperature. The total volume in all tubes is adjusted to 300 μl with assay buffer. Bound complexes are precipitated by the addition of 200 μl of preprecipitated goat anti-rabbit (GAR) second antibody at 1:20 in 1% normal rabbit serum, 4% PEG, 50 mM sodium phosphate, 0.1% sodium azide, followed by incubation for 1 hour at room temperature. The antibody-bound ^125 I-CRF precipitate is then collected by centrifugation (3000×g) at 4° C. for 20 minutes in a Beckman GS-15R centrifuge. Using a Beckman Biomer 1000 robotic workstation, the tubes are aspirated and washed once with 600 μl of PBS plus 0.02% NP-40. Tubes containing the pellets are then transferred to 12×74 mm counting tubes and counted in a gamma counter.
Inhibitory binding affinity constant (Ki) values are determined using the method of Munson et al., Anal. Biochem. 107:220, 1980.

[3] = inhibitory binding affinity constant (Ki)
[4] = read-out: inhibitory binding affinity constant (Ki)

For sauvagine, the “affinity for CRF-BP” value (human CRF-BP) is given as “bind CRF-BP with high affinity”.

In the case of `CC(NC(C)(C)C)C(=O)c1cccc(Cl)c1` (stereo not drawn) [bupropion], the side effects [1] is given as “convulsions”.

In the case of `CNCCC(Oc1ccc(C(F)(F)F)cc1)c1ccccc1` (stereo not drawn) [fluoxetine], the side effects [1] is listed as “suicidality”.

For `Nc1c2c(nc3ccccc13)CCCC2` [Tacrine], the “memory improvement in Alzheimer's patients” value [1] is given as “only marginal memory improvement” and the side effects [1] is given as “elevating liver enzymes”.

In the case of “hCRF (6-33): CRF-BP peptide ligand h/rCRF (6-33) (ISLDLTFHLLREVLEMARAEQLAQQAHS; Corticoliberin; UniProt P06850 159-186, looked up, fragment)”, the CRF antagonist activity [2] is reported as “does not exhibit substantial CRF antagonist activity” and the “CRF agonist activity relative to standard oCRF” value [2] is reported as “less than 0.1%”.

With “hCRF (9-33): The peptide hCRF (9-33) (DLTFHLLREVLEMARAEQLAQQAHS; Corticoliberin; UniProt P06850 162-186, looked up, fragment)” the “CRF agonist activity relative to standard oCRF” value [2] was “less than 0.01%”.

For `CCn1c(O)c(C=Nc2nc3cc(C)ccc3[nH]2)c(=O)n(CC)c1=S` [Compound 86], the Ki (human recombinant CRF-BP; [3]) was < 50 nM.

With `CCn1c(O)c(C=Nc2nc3c(C)cccc3s2)c(=O)n(CC)c1=S` [Compound 72] the Ki (human recombinant CRF-BP; [3]) was < 100 nM.

For `CCn1c(=O)c(C=Nc2nc3c(OC)cccc3s2)c(O)n(CCc2ccccc2)c1=S` [Compound 73-1], the Ki (human recombinant CRF-BP; [3]) was < 100 nM.

In the case of `O=c1oc2c(Cl)cc(Cl)cc2c(O)c1C=NC(=S)Nc1ccc(Cl)cc1` [Compound 32], the Ki (human recombinant CRF-BP; [4]) is reported as < 50 nM.

With `O=c1oc2ccc(Cl)cc2c(O)c1C=Nc1nc2c(Cl)cccc2s1` [Compound 36] the Ki (human recombinant CRF-BP; [4]) was < 50 nM.

In the case of `CCn1c(O)c(C=NC(=S)Nc2c(Cl)cc(Cl)cc2Cl)c(=O)n(CC)c1=S` [Compound 49], the Ki (human recombinant CRF-BP; [3]) is reported as < 100 nM.

With `O=c1oc2c(Cl)cccc2c(O)c1C=NC(=S)Nc1ccc(Cl)cc1` [Compound 31] the Ki (human recombinant CRF-BP; [4]) was < 50 nM.

With `O=c1oc2cc(Cl)ccc2c(O)c1C=Nc1nc2ccc(Cl)cc2s1` [Compound 45] the Ki (human recombinant CRF-BP; [4]) was < 50 nM.

With `CCCn1c(O)c(C=Nc2nnc(CC)s2)c(=O)n(CCC)c1=S` [Compound 150] the Ki (human recombinant CRF-BP; [3]) was < 100 nM.

With `O=c1c(C=Nc2nc3ccccc3[nH]2)c(O)n(CCc2cccs2)c(=S)n1CCc1cccs1` [Compound 97] the Ki (human recombinant CRF-BP; [3]) was < 50 nM.

For “oCRF: the standard oCRF, which is arbitrarily considered as 1.0”, the “affinity for CRF-BP” value (human CRF-BP) is given as “low affinity”.

In the case of `CCCn1c(O)c(C=Nc2nnc(C(F)(F)F)s2)c(=O)n(CCC)c1=S` [Compound 106], the Ki (human recombinant CRF-BP; [3]) is reported as < 100 nM.

With `Cc1cnc(N=Cc2c(O)n(Cc3cccs3)c(=S)n(Cc3cccs3)c2=O)s1` [Compound 157] the Ki (human recombinant CRF-BP; [3]) was < 50 nM.

With `O=c1oc2ccc3ccccc3c2c(O)c1C=NC(=S)Nc1ccc(Cl)cc1` [Compound 29] the Ki (human recombinant CRF-BP; [4]) was < 100 nM.

With `O=c1c(C=Nc2nc(N(Cc3ccccc3)c3ccccc3)ns2)c(O)n(Cc2ccccc2)c(=S)n1Cc1ccccc1` [Compound 132] the Ki (human recombinant CRF-BP; [3]) was < 50 nM.

With `CCn1c(O)c(C=Nc2nc3c(C(F)(F)F)cccc3s2)c(=O)n(CC)c1=S` [Compound 80] the Ki (human recombinant CRF-BP; [3]) was < 100 nM.

With `CCn1c(O)c(C=Nc2nc3ccc(C)cc3s2)c(=O)n(CC)c1=S` [Compound 75] the Ki (human recombinant CRF-BP; [3]) was < 50 nM.

For `CCn1c(=O)c(C=Nc2nc3ccccc3[nH]2)c(O)n(CCc2ccccc2)c1=S` [Compound 58-1], the Ki (human recombinant CRF-BP; [4]) was < 100 nM.

With `CCn1c(=O)c(C=Nc2nc3cc(C)c(C)cc3[nH]2)c(O)n(CCc2ccccc2)c1=S` [Compound 85-1] the Ki (human recombinant CRF-BP; [3]) was < 50 nM.

For `CCCn1c(O)c(C=Nc2nnc(SCC)s2)c(=O)n(CCC)c1=S` [Compound 116], the Ki (human recombinant CRF-BP; [3]) was < 100 nM.

For `CCn1c(O)c(C=Nc2nc3ccc(OC)cc3s2)c(=O)n(CC)c1=S` [Compound 76], the Ki (human recombinant CRF-BP; [3]) was < 50 nM.

In the case of `O=c1oc2ccc(Cl)cc2c(O)c1C=NC(=S)Nc1ccc(Cl)c(Cl)c1` [Compound 2], the Ki (human recombinant CRF-BP; [4]) is reported as < 50 nM.
